Experiments:
[1] = system: human prostate cancer PC-3; assay: Antitumor effect on human prostate cancer PC-3 tumor fragment implanted s.c. in nude mice; type: in vivo
Procedure: A necessary amount of FK228 was weighed and a solvent (10% HCO-60/saline) was added. The mixture was sonicated to allow for dissolution. A positive control substance Paclitaxel was dissolved in Cremophor EL/ethanol (1:1) solution to 24 mg/mL prior to the testing, and preserved in a refrigerator. When in use, it was diluted with a 9-fold amount of physiological saline to 2.4 mg/mL (solvent component: 5% Cremophor EL-5% ethanol-90% saline).
(§3) For antitumor test of the pharmaceutical agent, BALB/cANnNCrj-nu/nu mice (male, 6-week-old) were purchased from Charles River Japan and, after acclimation for not less than one week, used for the test. The mice were reared under an SPF environment and allowed a free access to water and feed.
A grown solid tumor was subcultured for not less than 3 generations and used for the test.
(§4) A solid tumor subcultured in a nude mouse was subcutaneously implanted in the right back of a mouse as an about 3 mm square tumor tissue fragment. […]
(§5) The administration was started on the day of grouping (Day 0). […] The amount of liquid for each administration was calculated (0.1 mL/10 g body weight) based on the body weight measured on the administration day.
(§6) The tumor size (longer diameter, shorter diameter) and body weight were measured twice a week from Day 0.
(§7) The level of tumor growth was evaluated based on the tumor growth rate (Relative Tumor Volume). […]

[2] = Maximum tolerated dose, intravenous administration to nude mice; settings: mouse, in vivo, i.v.
Procedure: The administration was started on the day of grouping (Day 0). FK228 was intravenously administered to an FK228 administration group 3 times every 4 days (q4d×3) (3.2 and 1.8 mg/kg). Paclitaxel (24 mg/kg) was intravenously administered for 5 consecutive days (qd×5) to a positive control substance Paclitaxel administration group. Only a solvent (10% HCO-60/saline) was administered (q4d×3) to a control group. The amount of liquid for each administration was calculated (0.1 mL/10 g body weight) based on the body weight measured on the administration day. Note that 3.2 mg/kg/day (q4d×3) of FK228 and 24 mg/kg/day (qd×5) of Paclitaxel were the maximum tolerated doses (MTD) thereof.

human kidney cancer ACHN = assay: Antitumor effect on human kidney cancer ACHN tumor fragment implanted s.c. in nude mice; type: in vivo
Procedure: A necessary amount of FK228 was weighed and a solvent (10% HCO-60/saline) was added. The mixture was sonicated to allow for dissolution.
as §3
Cultured human kidney cancer cell line 1 (ACHN: available from ATCC) and human culture prostate cancer cell line 1 (PC-3: available from ATCC) were subcutaneously implanted at 2-3×10^7 cells in a nude mouse. A grown solid tumor was subcultured for not less than 3 generations and used for the test.
as §4, §5, §6, §7

human kidney cancer A498 = assay: Antitumor effect on human kidney cancer A498 tumor fragment implanted s.c. in nude mice; type: in vivo; settings: 3.2 mg/kg i.v.
Source text: (§1) A solid tumor subcultured in a nude mouse was subcutaneously implanted in the right back of a mouse as an about 3 mm square tumor tissue fragment. After the tumor implantation, when the tumor volume (½×longer diameter×shorter diameter^2) reached 100-300 mm^3, the mice were grouped into 6 mice per group to level the tumor size.
human kidney cancer A498; obtained from ATCC (tumor fragment 3 mm×3 mm×3 mm/mouse implantation site s.c.)
(§2) By the method shown in Example 1, 3 mm square tumor fragments (human prostate cancer PC-3, human stomach cancer SC-6, human kidney cancer ACHN and human kidney cancer A498) were subcutaneously implanted in nude mice, and when the tumor volume (long diameter 9 mm, short diameter 8 mm) reached about 100-300 mm^3, FK228 (3.2 mg/kg) was intravenously administered. The tumor growth suppressing rates then were 98%, 84%, 20% and 29%, respectively.

[3] = system: human stomach cancer SC-6; assay: Antitumor effect on human stomach cancer SC-6 tumor fragment implanted s.c. in nude mice; type: in vivo; settings: SC-6 s.c. in nude mice, 3.2 mg/kg i.v.
Source text: as §1
human gastric cancer SC-6; obtained from Central Institute for Experimental Animals (tumor fragment 3 mm×3 mm×3 mm/mouse implantation site s.c.)
as §2

| Compound | antitumor action (tumor growth rate, Relative Tumor Volume) ([1]; PC-3 in nude mice, FK228 3.2 mg/kg i.v. q4d×3, FIG. 1(a)) | tumor growth suppressing rate ([1]; PC-3 s.c. in nude mice, 3.2 mg/kg i.v.) | MTD ([2]; q4d×3, nude mice) | antitumor action (tumor growth rate, Relative Tumor Volume) (human kidney cancer ACHN; ACHN in nude mice, FK228 i.v. q4d×3, FIG. 1(b)) | tumor growth suppressing rate (human kidney cancer ACHN; ACHN s.c. in nude mice, 3.2 mg/kg i.v.) | tumor growth suppressing rate (human kidney cancer A498) | tumor growth suppressing rate [3] | MTD at 5 days ([2]; 24 mg/kg, qd×5, nude mice) |
| --- | --- | --- | --- | --- | --- | --- | --- | --- |
| C/C=C1\NC(=O)[C@H]2CSSCC/C=C/[C@H](CC(=O)N[C@H](C(C)C)C(=O)N2)OC(=O)[C@H](C(C)C)NC1=O [FK228] | strong antitumor action | 98% | 3.2 mg/kg/day | did not show an antitumor action | 20% | 29% | 84% | – |
| CC(=O)O[C@H]1C(=O)[C@@]2(C)[C@H]([C@H](OC(=O)c3ccccc3)[C@]3(O)C[C@H](OC(=O)[C@H](O)[C@@H](NC(=O)c4ccccc4)c4ccccc4)C(C)=C1C3(C)C)[C@]1(OC(C)=O)CO[C@@H]1C[C@@H]2O [Paclitaxel, reference compound] | – | – | – | – | – | – | – | 24 mg/kg/day |

From patent US20080233562A1, “Method of Estimating Antitumor Effect of Histone Deacetylase Inhibitor” (Astellas Pharma Inc., priority 2003, published 2008)
